Measurements: patent US6723680B2, “Composition for regulation of gametophytic self-incompatibility, control method of gametophytic self-incompatibility of a plant and the plant self-pollinated by using said control method” (Istech Co., Ltd., priority 2000, dated 2004)

How the values were obtained:
[1] = tested on: pollen tube of Fuji apple; experiment: Pollen tube elongation of self-pollen in medium with style-specific RNase and inhibitor; format: cell-based; conditions: 10 units S1 RNase in medium
Procedure: To investigate the effect of the style-specific S1 RNase purified in the example 1-4 on pollen tube elongation of self-pollen, experiment was conducted as follows. First of all, only the self-pollen made from a stamen of Fuji apple was isolated. The isolated pollen was cultured in the medium for pollen tube elongation, which was added with 0, 2, 4 and 6 units (mg^−1min^−1ml) of S1 RNase purified in the example 1-4, respectively, in a dark condition for 24 hours at 28° C. The medium for pollen tube elongation is composed of 20 mM Mes-KOH (pH 6.0), 0.07% Ca(NO3)2·4H2O, 0.02% MgSO4·7H2O, 0.01% KNO3, 0.01% H3BO3 and 2% sucrose, and elongates pollen tube artificially.
10 units (mg^−1min^−1ml^−1) of the style-specific S1 RNase was added to the medium for pollen tube elongation, and ZnSO4 and CuSO4 were added thereto at 1 mM, 2 mM and 5 mM respectively. And then, pollen tube was cultured according to the same method as the Example 2.

wild-type tomato = experiment: Fruition rate of wild-type tomato according to blooming period of treatment; format: in vivo; conditions: 1 mM
Procedure: To test the effect of a style-specific RNase inhibitor in a practical cultivating environment, the style-specific RNase of the present invention was treated to the wild-type tomato that was cultivated in a greenhouse for research (located in Taegu Catholic University, Kyungsan city, Kyungsangpukdo, Republic of korea). In the present invention, the experiment was performed under the environmental condition that can keep the wild-type tomato, a representative plant having gametophytic self-incompatibility, a single species genetically.
To determine the treatment period of a style-specific RNase inhibitor, the inhibitor was treated at the early blooming period (budding formation period˜prior to fill blooming), the middle blooming period (full blooming) and the late blooming period (1 day after full blooming˜falling period of petal) respectively. The inhibitors, ZnSO4 and CuSO4 were then added with 1 mM (about 288 ppm) and 1 mM (about 250 ppm) respectively at 9˜11 a.m., when pollination of plant occurs most actively. Fruition rate was investigated, and the results of 4 times repeated experiments for 25 blooming periods (reproductive organ containing a stamen, a stigma, a petal, etc.) in each experiment were shown in Table 3 with the statistic value.

SMILES: O=S(=O)([O-])[O-].[Zn+2] [ZnSO4]
- elongation of pollen tube ([1]; 1 mM inhibitor): elongated again
- elongation of pollen tube ([1]; 2 mM inhibitor): elongated again
- Fruition rate (wild-type tomato; 1 day after full blooming): 0
- Fruition rate (wild-type tomato; 1 day before blooming): 0
- Fruition rate (wild-type tomato; 2 days after full blooming): 0
- Fruition rate (wild-type tomato; 2 days before blooming): 0
- Fruition rate (wild-type tomato; 3 days before blooming): >30%
- Fruition rate (wild-type tomato; 4 days before blooming): >71%
- Fruition rate (wild-type tomato; 5 days before blooming): >83%
- Fruition rate (wild-type tomato; 6 days before blooming): >90%
- Fruition rate (wild-type tomato; 7 days before blooming): >92%
- Fruition rate (wild-type tomato; full blooming): 0

SMILES: O=S(=O)([O-])[O-].[Cu+2] [CuSO4]
- elongation of pollen tube ([1]; 1 mM inhibitor): elongated again
- Fruition rate (wild-type tomato; 1 day after full blooming): 0
- Fruition rate (wild-type tomato; 1 day before blooming): 0
- Fruition rate (wild-type tomato; 2 days after full blooming): 0
- Fruition rate (wild-type tomato; 2 days before blooming): 0
- Fruition rate (wild-type tomato; 3 days before blooming): >37%
- Fruition rate (wild-type tomato; 4 days before blooming): >74%
- Fruition rate (wild-type tomato; 5 days before blooming): >86%
- Fruition rate (wild-type tomato; 6 days before blooming): >91%
- Fruition rate (wild-type tomato; 7 days before blooming): >91%
- Fruition rate (wild-type tomato; full blooming): 0
